Patent publication US10435399B2, “HDAC6 inhibitory heterocyclic compound” (TAKEDA PHARMACEUTICAL COMPANY LIMITED, priority 2017, dated 2019)

Each compound was assayed against T1, HDAC6 enzyme (Homo sapiens, UniProt Q9UBN7) (assay: HDAC6 enzyme inhibitory activity (HDAC-Glo I/II Assay kit)). Details: 10 μM; wells without enzyme = 100% inhibition; read-out: HDAC6 inhibitory rate (%) (10 μM).
T1 construct: transducing full length HDAC6 gene into Sf-9 insect cells; GST; purchased SignalChem; host or cells: Sf-9 insect cells
T1 sequence (Q9UBN7 1-1215): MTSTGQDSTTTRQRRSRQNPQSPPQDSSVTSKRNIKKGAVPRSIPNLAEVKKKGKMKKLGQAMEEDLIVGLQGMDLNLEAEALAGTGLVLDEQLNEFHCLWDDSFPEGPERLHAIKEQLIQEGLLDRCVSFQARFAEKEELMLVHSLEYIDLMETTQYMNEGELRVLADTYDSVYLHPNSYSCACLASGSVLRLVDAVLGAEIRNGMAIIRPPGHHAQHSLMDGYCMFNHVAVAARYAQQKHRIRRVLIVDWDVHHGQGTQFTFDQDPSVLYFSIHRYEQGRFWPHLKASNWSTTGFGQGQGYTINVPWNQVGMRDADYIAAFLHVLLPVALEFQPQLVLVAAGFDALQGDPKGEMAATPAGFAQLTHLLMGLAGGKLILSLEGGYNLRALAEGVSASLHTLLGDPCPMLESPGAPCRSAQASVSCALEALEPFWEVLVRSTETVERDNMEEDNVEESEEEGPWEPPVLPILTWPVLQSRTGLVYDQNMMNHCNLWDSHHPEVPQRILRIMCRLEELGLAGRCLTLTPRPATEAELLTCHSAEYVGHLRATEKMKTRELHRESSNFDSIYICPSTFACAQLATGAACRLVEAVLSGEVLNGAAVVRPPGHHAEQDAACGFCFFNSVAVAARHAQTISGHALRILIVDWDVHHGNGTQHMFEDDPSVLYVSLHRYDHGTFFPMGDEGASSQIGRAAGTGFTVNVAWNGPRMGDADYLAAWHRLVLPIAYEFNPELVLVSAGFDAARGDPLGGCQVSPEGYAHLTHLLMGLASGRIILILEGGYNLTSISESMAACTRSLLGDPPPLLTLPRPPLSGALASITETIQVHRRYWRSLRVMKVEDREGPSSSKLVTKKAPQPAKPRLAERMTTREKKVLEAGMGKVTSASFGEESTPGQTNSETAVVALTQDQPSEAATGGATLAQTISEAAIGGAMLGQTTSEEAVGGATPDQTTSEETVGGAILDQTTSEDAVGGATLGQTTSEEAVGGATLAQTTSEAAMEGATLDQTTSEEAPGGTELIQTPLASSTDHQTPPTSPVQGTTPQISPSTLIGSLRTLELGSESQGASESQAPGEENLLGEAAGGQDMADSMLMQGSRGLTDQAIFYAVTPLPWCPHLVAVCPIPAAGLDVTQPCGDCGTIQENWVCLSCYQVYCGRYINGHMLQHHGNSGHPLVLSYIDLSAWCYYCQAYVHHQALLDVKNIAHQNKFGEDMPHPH
Format: biochemical
Method in brief: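 Inhibition is calculated as relative activity, taking luminescence in enzyme-free wells as complete inhibition. The enzyme, full-length and GST-purified after Sf-9 expression, was exposed to compound for 60 min at room temperature before a 20 min HDAC-Glo reaction.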

inhibition at 10 µM | SMILES
101% | O=C1c2cc(-c3nnc(C(F)F)o3)cc(F)c2CN1C[C@H]1CC(F)(F)CN1S(=O)(=O)c1ccccc1 [Example 430, 6-(5-(difluoro-methyl)-1,3,4-oxadiazol-2-yl)-2-(((2R)-4,4-difluoro-1-(phenylsulfonyl)pyrrolidin-2-yl)methyl)-4-fluoroiso-indolin-1-one]
100% | Cn1nc(C(F)(F)F)cc1-c1c(F)cccc1N1Cc2ccc(-c3nnc(C(F)F)o3)cc2C1=O [Example 431, 6-(5-(difluoro-methyl)-1,3,4-oxadiazol-2-yl)-2-(3-fluoro-2-(1-methyl-3-(trifluoro-methyl)-1H-pyrazol-5-yl)phenyl)iso-indolin-1-one]
94% | O=C1c2cc(-c3nnc(C(F)F)o3)cnc2CN1Cc1cccc(OC(F)(F)F)c1 [Example 432, 3-(5-(difluoro-methyl)-1,3,4-oxadiazol-2-yl)-6-(3-(trifluoro-methoxy)benzyl)-6,7-dihydro-5H-pyrrolo[3,4-b] pyridin-5-one]
101% | O=C1c2cc(-c3nnc(C(F)F)o3)ccc2CN1C1(Cc2ccccc2)CCOCC1 [Example 433, 2-(4-benzyl-tetrahydro-2H-pyran-4-yl)-6-(5-(difluoro-methyl)-1,3,4-oxadiazol-2-yl) isoindolin-1-one]
98% | Cn1cc(-c2cn(C)nc2N2Cc3ccc(-c4nnc(C(F)F)o4)cc3C2=O)cn1 [Example 434, 6-(5-(difluoro-methyl)-1,3,4-oxadiazol-2-yl)-2-(1,1′-dimethyl-1H,1′H-4,4′-bipyrazol-3-yl) isoindolin-1-one]
99% | O=C1c2cc(-c3nnc(C(F)F)o3)ccc2CN1c1ccnn1-c1ccccc1 [Example 435, 6-(5-(difluoro-methyl)-1,3,4-oxadiazol-2-yl)-2-(1-phenyl-1H-pyrazol-5-yl)isoindolin-1-one]
98% | Cn1cc(-c2c(F)cccc2N2Cc3ccc(-c4nnc(C(F)F)o4)cc3C2=O)cn1 [Example 436, 6-(5-(difluoro-methyl)-1,3,4-oxadiazol-2-yl)-2-(3-fluoro-2-(1-methyl-1H-pyrazol-4-yl)phenyl)iso-indolin-1-one]
101% | O=C1c2cc(-c3nnc(C(F)F)o3)cnc2CN1Cc1ccccc1OC(F)(F)F [Example 437, 3-(5-(difluoro-methyl)-1,3,4-oxadiazol-2-yl)-6-(2-(trifluoro-methoxy)benzyl)-6,7-dihydro-5H-pyrrolo [3,4-b]pyridin-5-one]
97% | Cn1cccc1CN1Cc2ncc(-c3nnc(C(F)F)o3)cc2C1=O [Example 438, 3-(5-(difluoro-methyl)-1,3,4-oxadiazol-2-yl)-6-((1-methyl-1H-pyrrol-2-yl)methyl)-6,7-dihydro-5H-pyrrolo [3,4-b]pyridin-5-one]
99% | O=C1CCCN1c1cc(F)ccc1N1Cc2ccc(-c3nnc(C(F)F)o3)cc2C1=O [Example 439, 6-(5-(difluoro-methyl)-1,3,4-oxadiazol-2-yl)-2-(4-fluoro-2-(2-oxo-pyrrolidin-1-yl)phenyl) isoindolin-1-one]
97% | O=C1c2cc(-c3nnc(C(F)F)o3)cnc2CN1Cc1nccs1 [Example 440, 3-(5-(difluoro-methyl)-1,3,4-oxadiazol-2-yl)-6-(1,3-thiazol-2-ylmethyl)-6,7-dihydro-5H-pyrrolo [3,4-b]pyridin-5-one]
99% | O=C1c2cc(-c3nnc(C(F)F)o3)cnc2CN1Cc1ccccc1Br [Example 441, 6-(2-bromo-benzyl)-3-(5-(difluoro-methyl)-1,3,4-oxadiazol-2-yl)-6,7-dihydro-5H-pyrrolo [3,4-b]pyridin-5-one]
94% | Cn1ccc(N2Cc3ccc(-c4nnc(C(F)F)o4)cc3C2=O)n1 [Example 442, 6-(5-(difluoro-methyl)-1,3,4-oxadiazol-2-yl)-2-(1-methyl-1H-pyrazol-3-yl)isoindolin-1-one]
100% | N#Cc1ccc(N2Cc3ccc(-c4nnc(C(F)F)o4)cc3C2=O)c(-c2ccccc2)c1 [Example 443, 6-(6-(5-(difluoro-methyl)-1,3,4-oxadiazol-2-yl)-1-oxo-1,3-dihydro-2H-isoindol-2-yl) biphenyl-3-carbonitrile]
100% | N#Cc1ccc(N2Cc3ccc(-c4nnc(C(F)F)o4)cc3C2=O)c(-c2cnn(C(F)F)c2)c1 [Example 444, 4-(6-(5-(difluoro-methyl)-1,3,4-oxadiazol-2-yl)-1-oxo-1,3-dihydro-2H-isoindol-2-yl)-3-(1-(difluoro-methyl)-1H-pyrazol-4-yl) benzonitrile]
100% | N#Cc1ccc(N2Cc3ccc(-c4nnc(C(F)F)o4)cc3C2=O)c(-c2cccc(F)c2)c1 [Example 445, 6-(6-(5-(difluoro-methyl)-1,3,4-oxadiazol-2-yl)-1-oxo-1,3-dihydro-2H-isoindol-2-yl)-3′-fluoro-biphenyl-3-carbonitrile]
100% | Cn1cc(C2CCOCC2)c(N2Cc3ccc(-c4nnc(C(F)F)o4)cc3C2=O)n1 [Example 446, 6-(5-(difluoro-methyl)-1,3,4-oxadiazol-2-yl)-2-(1-methyl-4-(tetrahydro-2H-pyran-4-yl)-1H-pyrazol-3-yl) isoindolin-1-one]
100% | COc1cccc(-c2cn(C)nc2N2Cc3ccc(-c4nnc(C(F)F)o4)cc3C2=O)c1 [Example 447, 6-(5-(difluoro-methyl)-1,3,4-oxadiazol-2-yl)-2-(4-(3-methoxy-phenyl)-1-methyl-1H-pyrazol-3-yl) isoindolin-1-one]
100% | Cn1cc(C2=CCOCC2)c(N2Cc3ccc(-c4nnc(C(F)F)o4)cc3C2=O)n1 [Example 448, 6-(5-(difluoro-methyl)-1,3,4-oxadiazol-2-yl)-2-(4-(3,6-dihydro-2H-pyran-4-yl)-1-methyl-1H-pyrazol-3-yl) isoindolin-1-one]
100% | CC(=O)N[C@@H]1CCCC[C@H]1N1Cc2ncc(-c3nnc(C(F)F)o3)cc2C1=O [Example 449, N-((1R,2R)-2-(3-(5-(difluoro-methyl)-1,3,4-oxadiazol-2-yl)-5-oxo-5,7-dihydro-6H-pyrrolo[3,4-b]pyridin-6-yl)cyclohexyl) acetamide]
100% | O=C1c2cc(-c3nnc(C(F)F)o3)ccc2CN1c1ccc(F)cc1-n1cc(C(F)(F)F)cn1 [Example 450, 6-(5-(difluoro-methyl)-1,3,4-oxadiazol-2-yl)-2-(4-fluoro-2-(4-(trifluoro-methyl)-1H-pyrazol-1-yl)phenyl) isoindolin-1-one]
98% | O=C1c2cc(-c3nnc(C(F)F)o3)ccc2CN1c1ccc(F)cc1-n1cc(Cl)cn1 [Example 451, 2-(2-(4-chloro-1H-pyrazol-1-yl)-4-fluoro-phenyl)-6-(5-(difluoro-methyl)-1,3,4-oxadiazol-2-yl) isoindolin-1-one]
99% | O=C1c2cc(-c3nnc(C(F)F)o3)ccc2CN1c1ccc(F)cc1-n1cc(F)cn1 [Example 452, 6-(5-(difluoromethyl)-1,3,4-oxadiazol-2-yl)-2-(4-fluoro-2-(4-fluoro-1H-pyrazol-1-yl)phenyl)isoindolin-1-one]
99% | O=C1c2cc(-c3nnc(C(F)F)o3)ccc2CN1c1ccnn1-c1cccc(F)c1 [Example 453, 6-(5-(difluoro-methyl)-1,3,4-oxadiazol-2-yl)-2-(1-(3-fluoro-phenyl)-1H-pyrazol-5-yl) isoindolin-1-one]
101% | O=C1c2cc(-c3nnc(C(F)F)o3)cnc2CN1Cc1ccc(Cl)s1 [Example 454, 6-((5-chloro-2-thienyl)methyl)-3-(5-(difluoro-methyl)-1,3,4-oxadiazol-2-yl)-6,7-dihydro-5H-pyrrolo [3,4-b]pyridin-5-one]
102% | Cn1cc(-c2cc(F)cc(F)c2)c(N2Cc3ccc(-c4nnc(C(F)F)o4)cc3C2=O)n1 [Example 455, 6-(5-(difluoro-methyl)-1,3,4-oxadiazol-2-yl)-2-(4-(3,5-difluoro-phenyl)-1-methyl-1H-pyrazol-3-yl) isoindolin-1-one]
